Common to all, as to assay: NCI anticancer screen, dose series, 48 h
Test [1] relates to EKVX NSCLC.
The subject of test [2] is HCT-15 colon.
The subject of test [3] is HL-60(TB) leukemia.
The test system of test [4] is KM12 colon.
In test [5] the test system is MDA-N.
The subject of test [6] is NCI-H460 lung.
The subject of test [7] is SF-295 CNS.
The test system of test [8] is SK-MEL-2 melanoma.
For test [9], the system named is SK-MEL-28 melanoma.
Test [10] deals with SK-MEL-5 melanoma.
In test [11] the test system is SR leukemia.
Test [12] has as its system UACC-62 melanoma.

Values joined by “and” are separate entries in the source; they are usually repeats but may differ in a detail not shown here. Equal entries are not always repeated.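 96-well plates; 48 h exposure; 5 concentrations. Endpoints by linear interpolation between flanking doses. Not reached: highest tested concentration assigned. GI50 is the concentration that inhibits growth by half. TGI: total growth inhibition.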

With `CCCCCCCCCCCC(=O)OC[C@@H](C[As](=O)(O)O)OC(=O)CCCCCCCCCCC`, the TGI in [1] was 28.8 µM; in test [2], 24.1 µM; in test [3], > 30 µM; in [4], 17.1 µM; in [5] it was 15 µM; in test [6], 11.1 µM. Further, the TGI was 27.1 µM in [7]; 7.48 µM in test [8]; 11.3 µM in test [9]; 3.91 µM in test [10]; 57.2 µM in [11]; 6.94 µM in test [12].

Consider `Cc1ccc(S(=O)(=O)C2=C(C(C)C)N=NC2(C)C)cc1`, for which the TGI in test [1], in [2], in test [3], in [4], in test [5] and in test [6] was > 100 µM throughout. Further, the TGI in [7], in test [8], in [9], in test [10] and in test [11] was > 100 µM each time.

For `O=C1C(Br)=CC2(C=C1Br)CCNC1=C2C(=O)c2ncccc2C1=O`, the TGI in test [1] was 3.3 µM; in [2], 2.64 µM; in test [3], 8.26 µM; in test [4], 3.53 µM; in [5], 0.353 µM; in test [6], 1.46 µM. In addition, the TGI in [7] worked out at 2.74 µM; in [8] it was 0.38 µM; in [9], 2.17 µM; in [10], 1.62 µM; in [11], 2.07 µM; in test [12] it was 1.84 µM.

In the case of `CC1(C)O[C@H]2OC(CO)C(N=[N+]=[N-])[C@H]2O1` (stereo partly specified), the TGI in test [1], in test [2], in test [3], in [4], in test [5] and in test [6] was > 100 µM throughout. In addition, the TGI in [7], in test [8], in [9], in test [10], in test [11] and in [12] was > 100 µM in each case.

Turning to `CCOC(=O)C(NC(=O)c1ccccc1)(N1CCN(c2cc3c(cc2F)c(=O)c(C(=O)O)cn3C2CC2)CC1)C(F)(F)F` (stereo unspecified), the TGI in test [1] came to 67.1 µM; in test [3] it was 36.5 µM; in test [4] it was 31.7 µM; in test [5], 46.8 µM; in test [6], 44.6 µM; in [7], 87.9 µM. Further, the TGI in [8] was determined as 38.9 µM; in [9], 74.6 µM; in test [10], 29.4 µM; in test [11], 45.2 µM; in [12] it was 47.6 µM.

Take `O=C1C=C(Nc2ccc(S(=O)(=O)Nc3nccs3)cc2)c2ccccc2C1=O`: the TGI in test [1] was > 100 µM; in test [2], 79.4 µM; in test [3], 59.8 µM; in test [4], 37.7 µM; in test [5], 38.5 µM; in [6], > 100 µM. In addition, the TGI was 32.3 µM in [7]; 82.4 µM in [8]; 45.2 µM in test [9]; 38.7 µM in test [10]; > 100 µM in test [11]; 53.5 µM in [12].

As to `C=C1CCCCCCCCC/C=C/1SCCCSC`, the TGI in test [1], in [2], in test [3], in test [4], in [5] and in [6] was > 100 µM in each case. Besides, the TGI in test [7], in test [8], in test [9], in test [10], in test [11] and in [12] was > 100 µM each time.

Regarding `Cc1ccc(C(=O)NCc2ccccc2)cc1N=NN(C)C`, the TGI in test [1], in test [2], in test [3], in [4], in [5] and in test [6] was > 100 µM each time. For the same compound, the TGI in test [7], in test [8], in test [9], in test [10], in test [11] and in [12] was > 100 µM each time.

Regarding `COc1ccc(N2C(=O)C(=O)N(c3ccc(N=Nc4ccccc4)cc3)C2=S)cc1`, the TGI in [1] is 37 µM; in test [2] it was 32.4 µM; in test [3], > 100 µM; in test [4], 32.9 µM; in [5] it was 40.3 µM; in test [6] it was 34.1 µM. Also, the TGI in test [7] is 35.4 µM; in test [8], 35.1 µM; in test [9] it was 41.2 µM; in test [10], 30.4 µM; in test [11] it was > 100 µM; in test [12], 31.6 µM.

`CC1(C)OP(=O)(O)C=C1Sc1ccc([N+](=O)[O-])cc1[N+](=O)[O-]`: the TGI in [1], in [2], in test [3], in test [4], in [5] and in test [6] was > 100 µM throughout. In addition, the TGI in [7], in [8], in test [9], in test [10], in test [11] and in test [12] was > 100 µM throughout.

In the case of `CC(=O)c1ccc2c(c1)C(=O)c1sc(C(C)=O)cc1C2=O`, the TGI is 3.43 µM and 2.58 µM in test [1]; 2.18 µM in test [2]; 50 µM in test [3]; 2.34 µM and 1.48 µM in test [4]; 2.02 µM and 3.38 µM in test [5]; 7.31 µM and 11 µM in [6]. The TGI in test [7] was 1.84 µM and 3 µM; in [8], 4.23 µM and 2.98 µM; in test [9], 14.2 µM and 3.61 µM; in [10], 1.89 µM; in test [11], 50 µM and > 100 µM. The GI50 in test [4] was 0.313 µM; in [5] it was 0.316 µM; in test [6], 0.362 µM; in test [7], 1.56 µM; in [9], 1.85 µM; in test [11], 0.0247 µM.

Turning to `CC(=O)OC(CCC1(C)OC1COc1ccc(CCNC(=O)C=C(C)C)cc1)C(C)(C)OC(C)=O` (stereo unspecified), the TGI in [1] was > 100 µM; in [2] it was > 100 µM; in [3], > 56.7 µM; in test [4], 78.4 µM; in [5], 51.9 µM; in [6], > 100 µM. Further, the TGI in [7] is > 100 µM; in [8], > 100 µM; in test [9] it was > 100 µM; in [10] it was 15.6 µM; in test [11], > 74.4 µM; in test [12], > 100 µM.

With `COc1ccc(C2c3cc4c(cc3OC(N3CCOCC3)C2C)OCO4)cc1` (stereo unspecified), the TGI in test [1] is > 100 µM; in test [2], > 100 µM; in test [3], 91.2 µM; in test [4], > 100 µM; in test [5] it was > 82 µM; in test [6], > 100 µM. Besides, the TGI in test [7] is 67.5 µM; in test [8], > 71 µM; in test [9], > 88 µM; in [10], 72.4 µM; in [11] it was > 76.1 µM; in [12], > 95.6 µM.

`CS(=O)(=O)N1CC(CCl)c2ccc(O)cc21` (stereo unspecified): the TGI in [1] came to 16.3 µM; in [2], 18.6 µM; in test [3] it was 6.19 µM; in test [4] it was 7.83 µM; in test [5], 3.54 µM; in test [6], 11.3 µM. In addition, the TGI in test [7] was found to be 11.6 µM; in [8], 8.94 µM; in [9], 14.2 µM; in test [10], 3.46 µM; in test [11], 77.4 µM; in [12] it was 28.7 µM.

For the compound `CN(C)CCCNc1ccc2ncn3c4ccc(O)cc4c(=O)c1c23`, the TGI was found to be 16.6 µM in test [1]; 16.8 µM in [2]; 13.1 µM in test [3]; 16.7 µM in test [4]; 17.6 µM in [5]; 4.56 µM in [6]. Moreover, the TGI in test [7] amounted to 15.6 µM; in [8] it was 19.6 µM; in test [9] it was 18.1 µM; in [10], 9.57 µM; in test [11], 1.55 µM; in test [12], 13.5 µM.

Regarding `CCC1CC(O)c2c(O)c3c(c(O)c2C1O)C(=O)c1cccc(O)c1C3=O` (stereo unspecified) (tested in a mixture with another compound), the TGI in test [1] was 0.0864 µM and 0.192 µM; in test [3], 0.0866 µM and 0.0744 µM; in [4] it was 0.147 µM and 0.0175 µM; in [5], 0.093 µM and 0.0639 µM; in test [6], 0.271 µM; in [8], 0.0457 µM. Also, the TGI was 0.0712 µM and 0.0612 µM in [9]; 0.0374 µM and 0.0138 µM in test [10]; 0.0605 µM and 0.0406 µM in [11]; 0.0396 µM in [12]. Besides, the GI50 was 0.0237 µM in test [2] and 0.0177 µM in test [3].

Consider `O=c1[nH]c2nc3ccccc3c(=O)n2/c1=C/c1cccs1`, for which the TGI in [1], in test [2], in [3], in test [4], in [5] and in test [7] was > 100 µM each time. Further, the TGI in test [8], in [9], in test [10], in test [11] and in test [12] was > 100 µM in each case.
